# Measurements as given in patent publication EP4095134A1, “POLYCYCLIC COMPOUNDS FOR THE TREATMENT OF NEUROLOGICAL INDICATIONS” (UCL Business Ltd, priority 2021, dated 2022).
# Molecular target: T1, P2Y1 receptor (Homo sapiens, UniProt P47900)
# T1 construct: expressed in transfected cells
# Assay: P2Y1 IP1 accumulation HTRF assay, antagonism of agonist MRS2365 in stably transfected cells
# Assay type: cell-based
# Settings: racemic; 5nM MRS2365; values rounded to nearest whole number; N >= 4
# Experimental: IC50 values were determined using a cell based assay in stably transfected cells overexpressing the P2Y1 receptor. The assay system is a […] (HTRF) assay measuring accumulation of the intracellular messenger inositol monophosphate (IP1), generated intracellularly following activation of P2Y1. Activity of test compounds was generated by measuring antagonism of the increase in IP1 generated by addition of a selective P2Y1 agonist, MRS2365.
# P2Y1 overexpressing cells were maintained in T175 flasks. The day before the assay, these cells were split and 20µl cell suspension transferred to each well of white 384-well assay plates at a cell density of 0.5x10^6 cells/mL. Plates were pulse centrifuged, then incubated overnight at 37°C / 5% CO2 prior to assay.
# On day of assay, medium was removed from cells and replaced with stimulation buffer. Compounds were prepared in 100% DMSO for addition to cells using the Tecan D300e digital dispenser; compounds were prepared in cassette heads and added directly to wells in the required concentration range, to give a 10-point concentration response curve from 10µM with semi-log dilutions and a final DMSO concentration of 0.1%. Positive control antagonist curves with standard compounds were included on each plate. Plates were incubated with antagonists for 1 hour prior to addition of 5nM of the agonist MRS2365, dispensed using a Bravo liquid handler. Following agonist addition, plates were incubated for 60 minutes prior to assay. Both incubations were carried out at 37°C / 5% CO2.
# For the assay, IP1 accumulation was quantified using the IPOne kit according to manufacturer's instructions. In short, a standard curve was prepared for IP 1 quantification, and cells lysed using kit lysis buffer. Assay reagents were added to the lysates, and incubated for 1 hour at room temperature without spinning or shaking. Plates were analysed on a BMG Pherastar plate reader, and IP1 signal generated in cells interpolated from the standard curve.
# For all reported results, N is greater than or equal to 4. An individual N refers to one assay run with a single weighing of compound. A minimum of two assay runs were performed for each of two independent weighings of compound. Results (racemic)
# T1 sequence (P47900 whole entry): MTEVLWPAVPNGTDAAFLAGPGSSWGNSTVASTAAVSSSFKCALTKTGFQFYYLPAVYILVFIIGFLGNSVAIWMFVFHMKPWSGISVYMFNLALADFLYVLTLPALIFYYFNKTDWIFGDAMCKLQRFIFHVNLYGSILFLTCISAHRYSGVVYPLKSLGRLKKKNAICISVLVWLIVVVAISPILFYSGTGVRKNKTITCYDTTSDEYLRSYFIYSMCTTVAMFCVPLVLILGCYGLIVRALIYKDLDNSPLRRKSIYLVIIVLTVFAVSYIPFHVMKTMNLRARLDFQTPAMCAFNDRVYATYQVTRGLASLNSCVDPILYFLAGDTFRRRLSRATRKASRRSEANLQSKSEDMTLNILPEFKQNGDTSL
row,SMILES,IC50 [nM]
1,"O=C(Nc1ccc(Cl)cc1F)Nc1cccnc1Oc1ccc(F)cc1C1(C(F)(F)F)CCO1 (racemic) [S30, 1-(4-chloro-2-fluorophenyl)-3-(2-(4-fluoro-2-(2-(trifluoromethyl)oxetan-2-yl)phenoxy)pyridin-3-yl)urea]",166
2,O=C(Nc1ccc(OC(F)(F)F)cc1)Nc1cccnc1Oc1cc(F)ccc1C1(C(F)(F)F)CCO1 (racemic) [S31],168
3,"Cc1ccc(NC(=O)Nc2ccc(Cl)cc2)c(Oc2ccc(F)cc2C2(C(F)(F)F)CCO2)n1 (racemic) [S32, 1-(4-chlorophenyl)-3-(2-(4-fluoro-2-(2-(trifluoromethyl)oxetan-2-yl)phenoxy)-6-methylpyridin-3-yl)urea]",169
4,O=C(Nc1ccc(OC(F)(F)F)cc1)Nc1cccnc1Oc1ccc(F)cc1C1(C(F)(F)F)CCO1 (racemic) [S33],179
5,"Cc1ccc(NC(=O)Nc2nc3ccc(C)nc3s2)c(Oc2ccc(F)cc2C2(C(F)(F)F)CCO2)n1 (racemic) [S34, 1-(2-(4-fluoro-2-(2-(trifluoromethyl)oxetan-2-yl)phenoxy)-6-methylpyridin-3-yl)-3-(5-methylthiazolo[5,4-b]pyridin-2-yl)urea]",196
6,CN1CCC1(c1ccccc1Oc1ncccc1NC(=O)Nc1ccc(OC(F)(F)F)cc1)C(F)F (racemic) [S35],197
7,"O=C(Nc1ccc(OC2CC(F)(F)C2)cc1)Nc1cccnc1Oc1ccccc1C1(C(F)(F)F)CCO1 (racemic) [S36, 1-(4-(3,3-difluorocyclobutoxy)phenyl)-3-(2-(2-(2-(trifluoromethyl)oxetan-2-yl)phenoxy)pyridin-3-yl)urea]",207
8,O=C(Nc1ccc(OC(F)(F)F)cc1)Nc1cccnc1Oc1c(F)cccc1C1(C(F)(F)F)CCO1 (racemic) [S37],220
9,"O=C(Nc1cc(OC(F)(F)F)ccc1F)Nc1cccnc1Oc1ccc(F)cc1C1(C(F)(F)F)CCO1 (racemic) [S40, 1-(2-(4-fluoro-2-(2-(trifluoromethyl)oxetan-2-yl)phenoxy)pyridin-3-yl)-3-(2-fluoro-5-(trifluoromethoxy)phenyl)urea]",278
10,"Cc1ccc(NC(=O)Nc2ccc3c(c2)OC(F)(F)O3)c(Oc2ccc(F)cc2C2(C(F)(F)F)CCO2)n1 (racemic) [S41, 1-(2,2-difluorobenzo[d][1,3]dioxol-5-yl)-3-(2-(4-fluoro-2-(2-(trifluoromethyl)oxetan-2-yl)phenoxy)-6-methylpyridin-3-yl)urea]",287
11,"Cc1ccc(NC(=O)Nc2ccccc2)c(Oc2ccc(F)cc2C2(C(F)(F)F)CCO2)n1 (racemic) [S42, 1-(2-(4-fluoro-2-(2-(trifluoromethyl)oxetan-2-yl)phenoxy)-6-methylpyridin-3-yl)-3-phenylurea]",324
12,"COc1ccc(F)c(NC(=O)Nc2ccc(C)nc2Oc2ccccc2C2(C(F)(F)F)CCO2)c1 (racemic) [S44, 1-(2-fluoro-5-methoxyphenyl)-3-(6-methyl-2-(2-(2-(trifluoromethyl)oxetan-2-yl)phenoxy)pyridin-3-yl)urea]",348
13,Cc1ncc(NC(=O)Nc2ccc(OC(F)(F)F)cc2F)c(Oc2ccccc2C2(C(F)(F)F)CCO2)n1 (racemic) [S45],382
14,"Cc1ccc(NC(=O)Nc2ccc(F)cc2)c(Oc2ccc(F)cc2C2(C(F)(F)F)CCO2)n1 (racemic) [S48, 1-(2-(4-fluoro-2-(2-(trifluoromethyl)oxetan-2-yl)phenoxy)-6-methylpyridin-3-yl)-3-(4-fluorophenyl)urea]",408
15,"O=C(Nc1cccc(OC(F)(F)F)c1)Nc1cccnc1Oc1ccc(F)cc1C1(C(F)(F)F)CCO1 (racemic) [S49, 1-(2-(4-fluoro-2-(2-(trifluoromethyl)oxetan-2-yl)phenoxy)pyridin-3-yl)-3-(3-(trifluoromethoxy)phenyl)urea]",419
16,"[2H]C([2H])([2H])Oc1ccc(NC(=O)Nc2cccnc2Oc2ccccc2C2(C(F)(F)F)CCO2)c(F)c1 (racemic) [S52, 1-(2-fluoro-4-(methoxy-d3)phenyl)-3-(2-(2-(2-(trifluoromethyl)oxetan-2-yl)phenoxy)pyridin-3-yl)urea]",500
17,"Cc1ccc(NC(=O)Nc2ccc(F)cn2)c(Oc2ccc(F)cc2C2(C(F)(F)F)CCO2)n1 (racemic) [S54, 1-(2-(4-fluoro-2-(2-(trifluoromethyl)oxetan-2-yl)phenoxy)-6-methylpyridin-3-yl)-3-(5-fluoropyridin-2-yl)urea]",549
18,"Cc1ccc(NC(=O)Nc2ccc(C#N)cc2F)c(Oc2ccc(F)cc2C2(C(F)(F)F)CCO2)n1 (racemic) [S56, 1-(4-cyano-2-fluorophenyl)-3-(2-(4-fluoro-2-(2-(trifluoromethyl)oxetan-2-yl)phenoxy)-6-methylpyridin-3-yl)urea]",587
19,"COc1ccc(F)c(NC(=O)Nc2cccnc2Oc2ccc(F)cc2C2(C(F)(F)F)CCO2)c1 (racemic) [S57, 1-(2-(4-fluoro-2-(2-(trifluoromethyl)oxetan-2-yl)phenoxy)pyridin-3-yl)-3-(2-fluoro-5-methoxyphenyl)urea]",589
20,Cc1ncc(NC(=O)Nc2ccc(Cl)cc2F)c(Oc2ccccc2C2(C(F)(F)F)CCO2)n1 (racemic) [S58],639
21,"Cc1ncc(NC(=O)Nc2ccc(OC(F)(F)F)cc2)c(Oc2ccccc2C2(C(F)(F)F)CCO2)n1 (racemic) [S59, 1-(2-methyl-4-(2-(2-(trifluoromethyl)oxetan-2-yl)phenoxy)pyrimidin-5-yl)-3-(4-(trifluoromethoxy)phenyl)urea]",644
22,"O=C(Nc1cc2c(cc1F)OCO2)Nc1cccnc1Oc1ccccc1C1(C(F)(F)F)CCO1 (racemic) [S61, 1-(6-fluorobenzo[d][1,3]dioxol-5-yl)-3-(2-(2-(2-(trifluoromethyl)oxetan-2-yl)phenoxy)pyridin-3-yl)urea]",768
23,"O=C(Nc1ccc(CN2CC(F)(F)C2)cc1)Nc1cccnc1Oc1ccccc1C1(C(F)(F)F)CCO1 (racemic) [S62, 1-(4-((3,3-difluoroazetidin-1-yl)methyl)phenyl)-3-(2-(2-(2-(trifluoromethyl)oxetan-2-yl)phenoxy)pyridin-3-yl)urea]",807

# The next lines start with the values.
row,IC50 [nM],SMILES
1,165,"O=C(Nc1ccc(Cl)cc1F)Nc1cccnc1Oc1ccccc1C1(C(F)(F)F)CCO1 (racemic) [S29, 1-(4-chloro-2-fluorophenyl)-3-(2-(2-(2-(trifluoromethyl)oxetan-2-yl)phenoxy)pyridin-3-yl)urea]"
2,248,"O=C(Nc1ccc(C(F)(F)F)cn1)Nc1cccnc1Oc1ccccc1C1(C(F)(F)F)CCO1 (racemic) [S38, 1-(2-(2-(2-(trifluoromethyl)oxetan-2-yl)phenoxy)pyridin-3-yl)-3-(5-(trifluoromethyl)pyridin-2-yl)urea]"
3,259,"O=C(Nc1ccc(C(F)F)cc1)Nc1cccnc1Oc1ccccc1C1(C(F)(F)F)CCO1 (racemic) [S39, 1-(4-(difluoromethyl)phenyl)-3-(2-(2-(2-(trifluoromethyl)oxetan-2-yl)phenoxy)pyridin-3-yl)urea]"
4,334,O=C(Nc1ccc(OC(F)F)cc1)Nc1cccnc1Oc1ccccc1C1(C(F)(F)F)CCO1 (racemic) [S43]
5,384,"O=C(Nc1ccc(Cl)cn1)Nc1cccnc1Oc1ccccc1C1(C(F)(F)F)CCO1 (racemic) [S46, 1-(5-chloropyridin-2-yl)-3-(2-(2-(2-(trifluoromethyl)oxetan-2-yl)phenoxy)pyridin-3-yl)urea]"
6,392,"COc1ccc(F)c(NC(=O)Nc2cccnc2Oc2ccccc2C2(C(F)(F)F)CCO2)c1 (racemic) [S47, 1-(2-fluoro-5-methoxyphenyl)-3-(2-(2-(2-(trifluoromethyl)oxetan-2-yl)phenoxy)pyridin-3-yl)urea]"
7,465,"O=C(Nc1ccc(OC(F)(F)F)cn1)Nc1cccnc1Oc1ccccc1C1(C(F)(F)F)CCO1 (racemic) [S50, 1-(5-(trifluoromethoxy)pyridin-2-yl)-3-(2-(2-(2-(trifluoromethyl)oxetan-2-yl)phenoxy)pyridin-3-yl)urea]"
8,473,"COc1ccc(NC(=O)Nc2cccnc2Oc2ccccc2C2(C(F)(F)F)CCO2)c(F)c1 (racemic) [S51, 1-(2-fluoro-4-methoxyphenyl)-3-(2-(2-(2-(trifluoromethyl)oxetan-2-yl)phenoxy)pyridin-3-yl)urea]"
9,522,"O=C(Nc1ccc(F)cc1)Nc1cccnc1Oc1ccccc1C1(C(F)(F)F)CCO1 (racemic) [S53, 1-(4-fluorophenyl)-3-(2-(2-(2-(trifluoromethyl)oxetan-2-yl)phenoxy)pyridin-3-yl)urea]"
10,560,"COc1ccc(NC(=O)Nc2cccnc2Oc2ccccc2C2(C(F)(F)F)CCO2)cc1F (racemic) [S55, 1-(3-fluoro-4-methoxyphenyl)-3-(2-(2-(2-(trifluoromethyl)oxetan-2-yl)phenoxy)pyridin-3-yl)urea]"
11,735,"O=C(Nc1ccccc1)Nc1cccnc1Oc1ccccc1C1(C(F)(F)F)CCO1 (racemic) [S60, 1-phenyl-3-(2-(2-(2-(trifluoromethyl)oxetan-2-yl)phenoxy)pyridin-3-yl)urea]"
